These results are taken from US9670209B2 (ACADIA Pharmaceuticals Inc., priority 2013, dated 2017).

In one experiment the target is M1 muscarinic receptor (Homo sapiens (Human), UniProt P11229). Kind of experiment: M1 GTPγS binding assay.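 On Emax: efficacy relative to carbachol as 100%.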 The format is biochemical. To be noted: for M1 GTPγS PEC50 AVG: GTPγS binding; for Emax: read-out: M1 GTPγS EFF % AVG. For orientation: Binding of GTPγS marks nucleotide exchange on a G protein.
Experiment [1] concerns the target human M1 muscarinic acetylcholine receptor (Homo sapiens (Human), UniProt P11229). Kind of experiment: R-SAT (Receptor Selection and Amplification) assay, M1. The format is cell-based. To be noted: for Emax: percent efficacy vs carbachol = 100 percent, read-out: M1 EFF % AVG. The protocol: (§1) Briefly, NIH-3T3 cells were grown in 96-well tissue culture plates to 70% to 80% confluence. Cells were transfected with plasmid DNAs using Superfect Reagent (QIAGEN, Valencia, Calif.) as per the manufacturer's protocols. […] Cells were then grown in a humidified atmosphere with 5% ambient CO2 for 4 to 6 days. Media were then removed from the plates, and beta-galactosidase activity was measured by the addition of o-nitrophenyl-D-galactopyranoside (in phosphate-buffered saline with 5% NP-40 detergent). […] All data represent the mean of three wells and were analyzed using the computer program Excel Fit, and EC50 determinations were made using least-squares fit analysis with GraphPad Software Inc. (San Diego, Calif.) software.

In experiment [2] the target is human M3 muscarinic acetylcholine receptor (Homo sapiens (Human), UniProt P20309). Kind of experiment: R-SAT (Receptor Selection and Amplification) assay, M3. The format is cell-based. To be noted: for M3 PEC50 AVG: R-SAT, NIH-3T3 cells; for Emax: read-out: M3 EFF % AVG. As for the experimental part: as §1
Chain of human M3 muscarinic acetylcholine receptor (P20309 whole entry): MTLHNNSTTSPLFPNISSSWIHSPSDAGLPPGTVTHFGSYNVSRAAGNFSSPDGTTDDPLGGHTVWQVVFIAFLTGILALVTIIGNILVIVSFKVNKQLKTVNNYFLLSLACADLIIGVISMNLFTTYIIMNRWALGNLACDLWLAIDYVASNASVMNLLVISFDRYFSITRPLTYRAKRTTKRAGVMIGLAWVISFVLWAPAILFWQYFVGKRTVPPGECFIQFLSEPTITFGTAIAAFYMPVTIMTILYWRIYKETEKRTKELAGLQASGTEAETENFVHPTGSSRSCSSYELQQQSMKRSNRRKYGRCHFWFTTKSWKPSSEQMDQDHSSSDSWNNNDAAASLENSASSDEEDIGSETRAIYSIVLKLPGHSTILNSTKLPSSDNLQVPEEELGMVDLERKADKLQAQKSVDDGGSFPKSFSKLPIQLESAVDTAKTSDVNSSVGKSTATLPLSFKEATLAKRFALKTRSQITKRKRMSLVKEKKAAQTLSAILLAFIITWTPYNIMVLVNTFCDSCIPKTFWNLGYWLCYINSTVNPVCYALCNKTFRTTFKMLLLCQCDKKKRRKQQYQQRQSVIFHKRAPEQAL
For experiment [3], the target named is human M2 muscarinic acetylcholine receptor (Homo sapiens (Human), UniProt P08172). Kind of experiment: R-SAT (Receptor Selection and Amplification) assay, M2. It is filed as cell-based. To be noted: for M2 PEC50 AVG: R-SAT, NIH-3T3 cells; for Emax: read-out: M2 EFF % AVG. As for the experimental part:
as §1

Chain of human M2 muscarinic acetylcholine receptor (P08172 whole entry): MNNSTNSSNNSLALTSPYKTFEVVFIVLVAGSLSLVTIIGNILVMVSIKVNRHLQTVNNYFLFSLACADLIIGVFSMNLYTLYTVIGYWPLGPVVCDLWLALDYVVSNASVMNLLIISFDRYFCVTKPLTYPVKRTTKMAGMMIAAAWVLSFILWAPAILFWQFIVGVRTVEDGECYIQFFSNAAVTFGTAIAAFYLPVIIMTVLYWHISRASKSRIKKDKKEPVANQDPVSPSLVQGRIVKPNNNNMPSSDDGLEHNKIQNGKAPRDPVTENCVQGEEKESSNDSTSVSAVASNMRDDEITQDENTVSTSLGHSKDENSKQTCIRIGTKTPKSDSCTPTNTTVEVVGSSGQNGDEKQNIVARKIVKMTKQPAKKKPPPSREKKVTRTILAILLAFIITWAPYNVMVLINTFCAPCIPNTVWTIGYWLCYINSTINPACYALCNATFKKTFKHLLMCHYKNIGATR
Chain of M1 muscarinic receptor (P11229 whole entry): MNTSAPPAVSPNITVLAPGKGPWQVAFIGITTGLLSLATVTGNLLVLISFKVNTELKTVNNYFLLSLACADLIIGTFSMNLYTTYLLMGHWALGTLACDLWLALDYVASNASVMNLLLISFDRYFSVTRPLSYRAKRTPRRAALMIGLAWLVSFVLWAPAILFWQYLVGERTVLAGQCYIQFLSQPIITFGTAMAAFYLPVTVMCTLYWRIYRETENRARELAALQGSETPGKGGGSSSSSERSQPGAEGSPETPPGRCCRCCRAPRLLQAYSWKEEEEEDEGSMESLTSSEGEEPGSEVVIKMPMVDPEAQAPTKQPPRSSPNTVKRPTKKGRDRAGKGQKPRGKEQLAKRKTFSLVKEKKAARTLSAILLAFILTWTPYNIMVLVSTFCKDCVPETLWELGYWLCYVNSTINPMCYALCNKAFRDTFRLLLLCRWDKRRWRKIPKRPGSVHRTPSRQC
Chain of human M1 muscarinic acetylcholine receptor (P11229 whole entry): as above

Regarding `Cc1ccc2cnn(C[C@H](C)CN3[C@@H]4CC[C@H]3C[C@@H](OCC3CC3)C4)c2c1` [Compound 304, 1-((R)-3-(3-(Cyclopropylmethoxy)-8-aza-bicyclo[3.2.1]octan-8-yl)-2-methylpropyl)-6-methyl-1H-indazole], on M1 muscarinic receptor, the “M1 GTPγS PEC50 AVG” value worked out at 8.3 and the Emax was 67%. In addition, the “M1 PEC50 AVG” value in experiment [1] (NIH-3T3 cells) turned out to be 8.9. The Emax in experiment [1] worked out at 110%. Further, in experiment [2], the “M3 PEC50 AVG” value came out at 7.4 and the Emax was 9%. Moreover, in experiment [3], the “M2 PEC50 AVG” value came out at 7.6 and the Emax was 108%.
For the molecule `C[C@H](CN1[C@@H]2CC[C@H]1C[C@@H](OCC1CC1)C2)Cn1ncc2ccc(F)cc21` [Compound 307, 1-((R)-3-(3-(Cyclopropylmethoxy)-8-aza-bicyclo[3.2.1]octan-8-yl)-2-methylpropyl)-6-fluoro-1H-indazole], at M1 muscarinic receptor, the “M1 GTPγS PEC50 AVG” value is recorded as 8.0 and the Emax was 63%. The “M1 PEC50 AVG” value in experiment [1] (NIH-3T3 cells) turned out to be 9.5. Also, the Emax in experiment [1] is 156%. Further, in experiment [2], the “M3 PEC50 AVG” value turned out to be 7.3 and the Emax worked out at 19%. Moreover, in experiment [3], the “M2 PEC50 AVG” value was determined as 7.7 and the Emax came to 198%.
As for `C=CCO[C@H]1C[C@H]2CC[C@@H](C1)N2C[C@@H](C)Cn1ncc2ccc(F)cc21` [Compound 308, 1-((R)-3-(3-(Allyloxy)-8-aza-bicyclo[3.2.1]octan-8-yl)-2-methylpropyl)-6-fluoro-1H-indazole], on M1 muscarinic receptor, the “M1 GTPγS PEC50 AVG” value was 7.1 and the Emax stood at 66%. The “M1 PEC50 AVG” value in experiment [1] (NIH-3T3 cells) worked out at 8.9. The Emax in experiment [1] turned out to be 131%. In experiment [2], the “M3 PEC50 AVG” value worked out at 6.3 and the Emax was determined as 18%. Besides, in experiment [3], the “M2 PEC50 AVG” value was 7.4 and the Emax turned out to be 152%.
On to `COCC[C@H]1C[C@H]2CC[C@@H](C1)N2C[C@@H](C)Cn1ncc2ccc(F)cc21` [Compound 309, 1-((R)-3-(3-(2-Methoxyethyl)-8-aza-bicyclo[3.2.1]octan-8-yl)-2-methylpropyl)-6-fluoro-1H-indazole], for which the “M1 GTPγS PEC50 AVG” value on M1 muscarinic receptor is 7.3. Besides, the Emax on M1 muscarinic receptor amounted to 53%; in experiment [1], 123%; in experiment [2], 18%; in experiment [3], 176%. For the same molecule, in experiment [1] (NIH-3T3 cells), the “M1 PEC50 AVG” value worked out at 9.4. In addition, in experiment [2], the “M3 PEC50 AVG” value is 6.9. Moreover, in experiment [3], the “M2 PEC50 AVG” value is listed as 7.5.
Regarding `C[C@H](CN1[C@@H]2CC[C@H]1C[C@@H](OCC1CC1)C2)Cn1ncc2ccc(CO)cc21` [Compound 310s], the EC50 at M1 muscarinic receptor was 631 nM; in experiment [1] (NIH-3T3 cells, read-out: M1 PEC50 AVG (converted)), 31.6 nM. The Emax came out at 62% on M1 muscarinic receptor, 96% in experiment [1], 6% in experiment [2] and 27% in experiment [3].
For `COc1ccc2cnn(C[C@H](C)CN3[C@@H]4CC[C@H]3C[C@@H](OCC3CC3)C4)c2c1` [Compound 311], the EC50 at M1 muscarinic receptor was 50.1 nM. Further, the Emax at M1 muscarinic receptor came out at 55%; in experiment [1], 120%; in experiment [2], 2%; in experiment [3], 65%.
For the molecule `COCC[C@H]1C[C@H]2CC[C@@H](C1)N2C[C@@H](C)Cn1ncc2ccc(OC)cc21` [Compound 313, 1-((R)-3-((1R,3R,58)-3-(2-methoxyethyl)-8-azabicyclo[3.2.1]octan-8-yl)-2-methylpropyl)-6-methoxy-1H-indazole], at M1 muscarinic receptor, the EC50 was 39.8 nM. Moreover, the Emax at M1 muscarinic receptor stood at 49%; in experiment [1] it was 116%; in experiment [2], 7%; in experiment [3], 111%. The “M1 PEC50 AVG” value in experiment [1] (NIH-3T3 cells) was 8.2. In experiment [3], the “M2 PEC50 AVG” value is listed as 7.3.
Regarding `C[C@H](CN1[C@@H]2CC[C@H]1C[C@@H](OC1CCCC1)C2)Cn1ncc2ccccc21` [Compound 314s, 1-((R)-3-((1R,3R,58)-3-(cyclopentyloxy)-8-azabicyclo[3.2.1]octan-8-yl)-2-methylpropyl)-1H-indazole], on M1 muscarinic receptor, the EC50 is 25.1 nM. The Emax was found to be 48% on M1 muscarinic receptor, 104% in experiment [1], 8% in experiment [2] and 74% in experiment [3]. The “M1 PEC50 AVG” value in experiment [1] (NIH-3T3 cells) amounted to 8.4. Further, the “M2 PEC50 AVG” value in experiment [3] turned out to be 7.3.
`C[C@H](CN1[C@@H]2CC[C@H]1C[C@@H](OCC1CCC1)C2)Cn1ncc2ccccc21` [Compound 315, 1-((R)-3-(3-(cyclobutylmethoxy)-8-aza-bicyclo[3.2.1]octan-8-yl)-2-methylpropyl)-1H-indazole] had an EC50 at M1 muscarinic receptor of 50.1 nM. The Emax on M1 muscarinic receptor is 36%; in experiment [1] it was 100%; in experiment [2], 5%; in experiment [3], 47%. Also, in experiment [1] (NIH-3T3 cells), the “M1 PEC50 AVG” value is reported as 8.1. In addition, the “M2 PEC50 AVG” value in experiment [3] turned out to be 7.3.
In the case of `Cc1nn(C[C@H](C)CN2[C@@H]3CC[C@H]2C[C@@H](OCC2CC2)C3)c2ccccc12` [Compound 316, 1-((R)-3-(3-(cyclopropylmethoxy)-8-aza-bicyclo[3.2.1]octan-8-yl)-2-methylpropyl)-3-methyl-1H-indazole], at M1 muscarinic receptor, the EC50 was 31.6 nM. For the same molecule, the Emax at M1 muscarinic receptor was found to be 88%; in experiment [1] it was 78%; in experiment [2], 5%; in experiment [3], 81%. The “M1 PEC50 AVG” value in experiment [1] (NIH-3T3 cells) is on record as 7.9. For the same molecule, the “M2 PEC50 AVG” value in experiment [3] is given as 6.6.
As for `Cc1cccc2cnn(C[C@H](C)CN3[C@@H]4CC[C@H]3C[C@@H](OCC3CC3)C4)c12` [Compound 317, 1-((R)-3-(3-(cyclopropylmethoxy)-8-aza-bicyclo[3.2.1]octan-8-yl)-2-methylpropyl)-7-methyl-1H-indazole], at M1 muscarinic receptor, the EC50 is 100 nM. In addition, the Emax on M1 muscarinic receptor was 85%; in experiment [1], 81%; in experiment [2] it was 2%; in experiment [3] it was 46%. Further, the “M1 PEC50 AVG” value in experiment [1] (NIH-3T3 cells) came to 7.6. The “M2 PEC50 AVG” value in experiment [3] is 6.9.
`C#CCO[C@H]1C[C@H]2CC[C@@H](C1)N2C[C@@H](C)Cn1ncc2ccccc21` [Compound 318s, 1-((R)-3-((1R,3R,5S)-3-(prop-2-ynyloxy)-8-azabicyclo[3.2.1]octan-8-yl)-2-methylpropyl)-1H-indazole] had an EC50 on M1 muscarinic receptor of 79.4 nM. The Emax on M1 muscarinic receptor was 66%; in experiment [1], 122%; in experiment [2], 8%; in experiment [3] it was 92%. Further, the “M1 PEC50 AVG” value in experiment [1] (NIH-3T3 cells) is recorded as 8.0. In experiment [3], the “M2 PEC50 AVG” value turned out to be 7.2.
The molecule `CCCO[C@H]1C[C@H]2CC[C@@H](C1)N2C[C@@H](C)Cn1ncc2ccccc21` [Compound 319s, 1-((R)-3-(3-(propoxy)-8-aza-bicyclo[3.2.1]octan-8-yl)-2-methylpropyl)-1H-indazole] had an EC50 at M1 muscarinic receptor of 200 nM. For the same molecule, the Emax at M1 muscarinic receptor turned out to be 63%; in experiment [1], 111%; in experiment [2] it was 3%; in experiment [3] it was 102%. Besides, in experiment [1] (NIH-3T3 cells), the “M1 PEC50 AVG” value is 8.1. The “M2 PEC50 AVG” value in experiment [3] worked out at 7.5.
In turn, `COC/C=C1\C[C@H]2CC[C@@H](C1)N2C[C@@H](C)Cn1ncc2ccccc21` [Compound 320s, 1-((R)-3-((1R,3R,58)-3-(2-methoxyethylidene)-8-azabicyclo[3.2.1]octan-8-yl)-2-methylpropyl)-1H-indazole] gave an EC50 on M1 muscarinic receptor of 158 nM. Besides, the Emax at M1 muscarinic receptor stood at 60%; in experiment [1] it was 109%; in experiment [2], 8%; in experiment [3], 90%. Further, the “M1 PEC50 AVG” value in experiment [1] (NIH-3T3 cells) is 8.2. Moreover, in experiment [3], the “M2 PEC50 AVG” value is 7.2.
Turning to `Cc1ccc2c(cnn2C[C@H](C)CN2[C@@H]3CC[C@H]2C[C@@H](OCC2CC2)C3)c1` [Compound 321, 1-((R)-3-(3-(cyclopropylmethoxy)-8-aza-bicyclo[3.2.1]octan-8-yl)-2-methylpropyl)-5-methyl-1H-indazole], the EC50 on M1 muscarinic receptor is 63.1 nM. In addition, the Emax at M1 muscarinic receptor amounted to 56%; in experiment [1], 75%; in experiment [2], 3%; in experiment [3] it was 19%. In addition, in experiment [1] (NIH-3T3 cells), the “M1 PEC50 AVG” value was 7.9. For the same molecule, the “M2 PEC50 AVG” value in experiment [3] was determined as 8.1.
As to `C#CCO[C@H]1C[C@H]2CC[C@@H](C1)N2C[C@@H](C)Cn1ncc2ccc(OC)cc21` [Compound 322s, 1-((R)-3-((1R,3R,5S)-3-(prop-2-ynyloxy)-8-azabicyclo[3.2.1]octan-8-yl)-2-methylpropyl)-6-methoxy-1H-indazole], at M1 muscarinic receptor, the EC50 was 79.4 nM. The Emax is 42% at M1 muscarinic receptor, 86% in experiment [1], 5% in experiment [2] and 44% in experiment [3]. In experiment [1] (NIH-3T3 cells), the “M1 PEC50 AVG” value was 8.0. Moreover, the “M2 PEC50 AVG” value in experiment [3] came to 7.1.
For the molecule `CCOCC[C@H]1C[C@H]2CC[C@@H](C1)N2C[C@@H](C)Cn1ncc2ccccc21` [Compound 323, 1-((R)-3-((1R,3R,5S)-3-(2-ethoxyethyl)-8-azabicyclo[3.2.1]octan-8-yl)-2-methylpropyl)-1H-indazole], the EC50 at M1 muscarinic receptor is 20 nM. The Emax on M1 muscarinic receptor was 32%; in experiment [1] it was 66%; in experiment [2], -2%; in experiment [3] it was 34%. Moreover, the “M1 PEC50 AVG” value in experiment [1] (NIH-3T3 cells) stood at 9.1. For the same molecule, the “M2 PEC50 AVG” value in experiment [3] is 7.8.
